The source of these data is ChEMBL document CHEMBL1140442, “Potent cannabinergic indole analogues as radioiodinatable brain imaging agents for the CB1 cannabinoid receptor” (J Med Chem, 2005).

The target in test [1] is Cannabinoid receptor 1 (Rattus norvegicus, UniProt P20272). The test can be described thus: Binding affinity towards rat forebrain cannabinoid receptor 1 using [3H]CP-55940.
The target in the next test is Cannabinoid receptor 2 (Mus musculus, UniProt P47936). As to the kind of experiment: Binding affinity towards mouse spleen cannabinoid receptor 2 using [3H]CP-55940. The test is classed as tissue-based.
The target in test [2] is T1, Cannabinoid receptor 1 (Mus musculus, UniProt P47746). As to the kind of experiment: Binding affinity towards mouse hippocampal membranes cannabinoid receptor 1 using [3H]SR-141,716A.
The target of test [3] is T1, Cannabinoid receptor 1. As to the kind of experiment: Binding affinity towards mouse hippocampal membranes cannabinoid receptor 1 using [131I]-(R)-8.

The structures appear in SMILES notation.

Sequence of Cannabinoid receptor 2 (P47936 whole entry): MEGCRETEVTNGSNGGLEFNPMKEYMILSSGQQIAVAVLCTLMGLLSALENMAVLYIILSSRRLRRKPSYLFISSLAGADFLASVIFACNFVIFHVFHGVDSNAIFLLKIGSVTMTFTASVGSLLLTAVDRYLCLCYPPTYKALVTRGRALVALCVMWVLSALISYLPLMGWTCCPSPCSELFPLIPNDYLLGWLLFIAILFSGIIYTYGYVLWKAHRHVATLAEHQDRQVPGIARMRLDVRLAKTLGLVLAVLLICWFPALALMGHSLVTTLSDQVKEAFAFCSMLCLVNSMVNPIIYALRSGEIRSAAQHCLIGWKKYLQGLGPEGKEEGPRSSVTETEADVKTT
Sequence of Cannabinoid receptor 1 (Rattus norvegicus, UniProt P20272) (P20272 whole entry): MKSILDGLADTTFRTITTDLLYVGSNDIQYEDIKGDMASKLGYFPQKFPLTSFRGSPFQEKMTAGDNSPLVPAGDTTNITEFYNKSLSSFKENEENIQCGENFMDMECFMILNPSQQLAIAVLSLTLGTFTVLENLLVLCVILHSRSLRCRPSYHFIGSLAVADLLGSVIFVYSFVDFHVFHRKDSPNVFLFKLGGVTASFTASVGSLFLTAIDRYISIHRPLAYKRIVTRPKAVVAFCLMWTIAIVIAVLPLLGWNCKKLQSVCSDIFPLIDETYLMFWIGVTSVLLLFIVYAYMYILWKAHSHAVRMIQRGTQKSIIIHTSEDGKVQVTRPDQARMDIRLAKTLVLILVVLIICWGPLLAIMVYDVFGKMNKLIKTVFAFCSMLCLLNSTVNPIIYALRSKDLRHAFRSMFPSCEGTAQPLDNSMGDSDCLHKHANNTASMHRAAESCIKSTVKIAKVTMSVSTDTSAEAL
T1 sequence (P47746 whole entry): as the sequence (P20272 whole entry) above, with E95D counted along it

Take `CN1CCCC[C@H]1Cn1cc(C(=O)c2ccccc2I)c2ccccc21`: the Ki – broadly, a measure of affinity in units of concentration, obtained from inhibition or displacement – on Cannabinoid receptor 1 [1] was found to be 560 nM.
For the molecule `Cc1c(C(=O)c2ccc(I)cc2)c2ccccc2n1CC1CCCCN1C` (configuration not stated), affinity on Cannabinoid receptor 2 was put at a Ki of 790 nM.
`Cc1c(C(=O)c2cccc(I)c2)c2ccccc2n1CC1CCCCN1C` (configuration not stated): the Ki at Cannabinoid receptor 1 [1] worked out at 2900 nM; at Cannabinoid receptor 2 it was 9600 nM.
Turning to `CN1CCCCC1Cn1cc(C(=O)c2ccccc2I)c2ccccc21` (configuration not stated), the Ki came to 1.3 nM on Cannabinoid receptor 1 [2] and 0.2 nM at Cannabinoid receptor 1 [3].
`CN1CCCCC1Cn1cc(C(=O)c2ccc(I)c3ccccc23)c2ccccc21` (configuration not stated): affinity on Cannabinoid receptor 2 was put at a Ki of 5.3 nM.
Consider `CN1CCCCC1Cn1cc(C(=O)c2cccc3ccccc23)c2ccc(I)cc21` (configuration not stated), for which the results for the Ki at Cannabinoid receptor 1 [1] and at Cannabinoid receptor 2 were 18 nM and 9.8 nM, respectively.
The corresponding values for `CN1CCCCC1Cn1cc(C(=O)c2cccc3ccccc23)c2ccccc21` (configuration not stated) are 0.75 nM and 1.91 nM.
For `Cc1c(C(=O)c2ccccc2I)c2ccccc2n1CC1CCCCN1C` (single isomer, unassigned; (+)), in that order: 6.7 nM and 10 nM.
The corresponding values for `Cc1c(C(=O)c2ccccc2I)c2ccccc2n1CC1CCCCN1C` (single isomer, unassigned; (-)) are 1200 nM and 83 nM.
Turning to `Cc1c(C(=O)c2ccccc2I)c2ccccc2n1CC1CCCCN1C` (stereo in doubt; 5), the Ki at Cannabinoid receptor 1 [1] and at Cannabinoid receptor 2 was 34 nM throughout.
